According to ChEMBL document CHEMBL3714723, “Thiazole and oxazole-substituted arylamides as P2X3 and P2X2/3 antagonists” (2010):
Activity calls are given as the source filed them. The rule behind the calls is not given here.

Biological target: T1, P2X purinoceptor 3 (Rattus norvegicus) (UniProt P49654)
T1 sequence (whole entry): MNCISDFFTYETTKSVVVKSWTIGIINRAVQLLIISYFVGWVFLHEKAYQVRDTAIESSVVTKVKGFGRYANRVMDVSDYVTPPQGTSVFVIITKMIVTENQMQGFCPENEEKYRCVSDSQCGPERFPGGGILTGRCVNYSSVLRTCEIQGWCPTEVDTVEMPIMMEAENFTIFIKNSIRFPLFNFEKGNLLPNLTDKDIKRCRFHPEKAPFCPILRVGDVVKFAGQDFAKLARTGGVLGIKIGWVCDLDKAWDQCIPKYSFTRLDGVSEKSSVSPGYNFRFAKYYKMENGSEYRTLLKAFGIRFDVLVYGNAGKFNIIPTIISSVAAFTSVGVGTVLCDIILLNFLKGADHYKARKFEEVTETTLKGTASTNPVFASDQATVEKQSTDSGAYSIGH
Assay: Antagonist activity against rat P2X3 receptor expressed in CHOK1 cells assessed as inhibition of alpha,beta-meATP-induced calcium response incubated for 20 mins by Fluo-3AM dye based FLIPR assay
Format: functional, cell-based
Settings: CHO-K1

Structure (SMILES) | antagonist activity call (active/inactive)
Cc1ccc(-c2cc(C(=O)NC(C)c3cnccn3)cc(-c3scnc3C)c2)cc1 (stereo not given) | Active
Cc1ccc(-c2cc(C(=O)NC(C)CO)cc(-c3scnc3C)c2)cc1 (stereo not given) | Active
CCc1ncsc1-c1cc(C(=O)NCc2cnc(C)cn2)cc(-c2ccc(C)cc2)c1 | Active
COc1ccc([C@@H](C)NC(=O)c2cc(-c3ccc(C)cc3)cc(-c3nccs3)c2)cc1 | Active
C[C@H](CN1CCN(S(C)(=O)=O)CC1)NC(=O)c1cc(-c2nccs2)cc(-c2ccc(F)cc2Cl)c1 | Active
COCC(C)NC(=O)c1cc(-c2ccc(C)cc2)cc(-c2oncc2C)c1 (stereo not given) | Active
COCC(C)NC(=O)c1cc(-c2ccc(C)cc2)cc(-c2ccns2)c1 (stereo not given) | Active
COC[C@@H](C)NC(=O)c1cc(-c2ccc(C)cc2)cc(-c2scnc2C)c1 | Active
Cc1ccc(-c2cc(C(=O)N[C@H](C)CN3CCN(S(C)(=O)=O)CC3)cc(-c3nccs3)c2)c(F)c1 | Active
Cc1ccc(-c2cc(C(=O)N[C@@H](C)CO)cc(-c3scnc3C(C)C)c2)nc1 | Active
Cc1ccc(-c2cc(C(=O)N[C@H](C)CN3CCN(S(C)(=O)=O)CC3)cc(-c3cncs3)c2)c(F)c1 | Active
CC(=O)N1CCN(C[C@@H](C)NC(=O)c2cc(-c3ccc(C)cc3)cc(-c3cncs3)c2)CC1 | Active
Cc1ccc(-c2cc(C(=O)NC(C)c3cnccn3)cc(-c3cncs3)c2)cc1 (stereo not given) | Active
COCC(C)NC(=O)c1cc(-c2ccc(C)cc2)cc(-c2cncs2)c1 (stereo not given) | Active
C[C@H](CN1CCN(S(C)(=O)=O)CC1)NC(=O)c1cc(-c2cncs2)cc(-c2ccc(F)cc2Cl)c1 | Active
Cc1ccc(-c2cc(C(=O)NC(C)c3ccco3)cc(-c3nccs3)c2)cc1 (stereo not given) | Active
Cc1ccc(-c2cc(C(=O)NCCOCCO)cc(-c3nccs3)c2)cc1 | Active
CCC(C)NC(=O)c1cc(-c2ccc(C)cc2)cc(-c2nccs2)c1 (stereo not given) | Active
COCC(C)NC(=O)c1cc(-c2ccc(C)cc2)cc(-c2nc3ccccc3s2)c1 (stereo not given) | Active
Cc1ccc(-c2cc(C(=O)N[C@H](C)CN3CCOCC3)cc(-c3nccs3)c2)c(F)c1 | Active
COCC(C)NC(=O)c1cc(-c2cncs2)cc(-c2ccc(F)cc2F)c1 (stereo not given) | Active
COCC(C)NC(=O)c1cc(-c2ccc(C)cc2)cc(-c2ncco2)c1 (stereo not given) | Active
C[C@H](CN1CCOCC1)NC(=O)c1cc(-c2nccs2)cc(-c2ccc(F)cc2Cl)c1 | Active
COCC(C)NC(=O)c1cc(-c2ccc(C)cc2)cc(-c2cocn2)c1 (stereo not given) | Active
COCC(C)NC(=O)c1cc(-c2ccc(C)cc2)cc(-c2nccs2)c1 (stereo not given) | Active
Cc1ccc(-c2cc(C(=O)N[C@H](C)CN3CCS(=O)(=O)CC3)cc(-c3scnc3C)c2)cc1 | Active
Cc1ccc(-c2cc(C(=O)NC(C)c3cnccn3)cc(-c3nccs3)c2)c(F)c1 (stereo not given) | Active
CC(=O)N1CCN(C[C@@H](C)NC(=O)c2cc(-c3nccs3)cc(-c3ccc(C)cc3F)c2)CC1 | Active

Structure (SMILES) | antagonist activity call (active/inactive)
COCC(C)NC(=O)c1cc(-c2ccc(C)cc2)cc(-c2ncc(C(=O)NC(C)C)s2)c1 (stereo not given) | Active
Cc1ccc(-c2cc(C(=O)N[C@H](C)CO)cc(-c3nccs3)c2)c(F)c1 | Active
COCC(C)NC(=O)c1cc(-c2ccc(C)cc2)cc(-c2cnco2)c1 (stereo not given) | Active
CCCc1ncoc1-c1cc(C(=O)NCc2cnc(C)cn2)cc(-c2ccc(C)cn2)c1 | Active
COC[C@H](C)NC(=O)c1cc(-c2ccc(C)cc2)cc(-c2scnc2C)c1 | Active
Cc1ccc(-c2cc(C(=O)N[C@H](C)CN3CCOCC3)cc(-c3cncs3)c2)cc1 | Active
Cc1ccc(-c2cc(C(=O)N[C@H](C)CO)cc(-c3nccs3)c2)cc1 | Active
COCC(C)NC(=O)c1cc(-c2cncs2)cc(-c2ccc(F)cc2Cl)c1 (stereo not given) | Active
COCC(C)NC(=O)c1cc(-c2ccc(C)cc2)cc(-c2scnc2C)c1 (stereo not given) | Active
COCC(C)NC(=O)c1cc(-c2ccc(C)cc2)cc(-c2ccno2)c1 (stereo not given) | Active
Cc1ccc(-c2cc(C(=O)N[C@H](C)CN3CCN(S(C)(=O)=O)CC3)cc(-c3nccs3)c2)cc1 | Active
COCC(C)NC(=O)c1cc(-c2ccc(C)cc2)cc(-c2ncc(C(=O)N(C)C)s2)c1 (stereo not given) | Active
CNC(=O)c1cnc(-c2cc(C(=O)NC(C)COC)cc(-c3ccc(C)cc3)c2)s1 (stereo not given) | Active
Cc1ccc(-c2cc(C(=O)NCc3ccc(C)nn3)cc(-c3ncsc3C(C)C)c2)nc1 | Active
Cc1ccc(-c2cc(C(=O)NC(C)c3cnccn3)cc(-c3nccs3)c2)cc1 (stereo not given) | Active
COCC(C)NC(=O)c1cc(-c2ccc(C)cc2)cc(-c2cscn2)c1 (stereo not given) | Active
Cc1ccc(-c2cc(C(=O)N[C@H](C)CN3CCOCC3)cc(-c3nccs3)c2)cc1 | Active
Cc1ccc(-c2cc(C(=O)N[C@H](C)CN3CCOCC3)cc(-c3scnc3C)c2)cc1 | Active
CCC(C)(C)NC(=O)c1cc(-c2ccc(C)cc2)cc(-c2nccs2)c1 | Active
Cc1ccc(-c2cc(C(=O)NCc3ccc(C)nn3)cc(-c3scnc3C(C)C)c2)nc1 | Active
CC(=O)N1CCN(C[C@@H](C)NC(=O)c2cc(-c3ccc(C)cc3)cc(-c3scnc3C)c2)CC1 | Active
Cc1ccc(-c2cc(C(=O)N[C@H](C)CN3CCN(S(C)(=O)=O)CC3)cc(-c3cncs3)c2)cc1 | Active
CCOC(=O)c1cnc(-c2cc(C(=O)NC(C)COC)cc(-c3ccc(C)cc3)c2)s1 (stereo not given) | Active
C[C@H](CN1CCOCC1)NC(=O)c1cc(-c2cncs2)cc(-c2ccc(F)cc2Cl)c1 | Active
CC(=O)N1CCN(C[C@@H](C)NC(=O)c2cc(-c3ccc(C)cc3)cc(-c3nccs3)c2)CC1 | Active
Cc1ccc(-c2cc(C(=O)NC(C)(C)c3ccccc3)cc(-c3nccs3)c2)cc1 | Active
Cc1ccc(-c2cc(C(=O)NC(C)CN(C)C)cc(-c3nccs3)c2)cc1 (stereo not given) | Active
